# Assay results as given in the supplement of paper PMC10307832.
# Compound: C=CCNC1=C2C[C@@H](C)C[C@H](OC)[C@H](O)[C@@H](C)/C=C(\C)[C@H](OC(N)=O)[C@@H](OC)/C=C\C=C(/C)C(=O)NC(=CC1=O)C2=O [17-AAG] + CC(C)C[C@H](NC(=O)[C@H](Cc1ccccc1)NC(=O)c1cnccn1)B(O)O [Bortezomib] (partner 0.002 µM)
# Assay: relative viability (nuclei count vs DMSO), 5 days (fraction); higher = more cells survive
# Procedure, shortened: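 Lung cancer cell lines, seeded in 1536-well plates, were treated the following day by pin tool with a single drug or with five library-drug doses (not always all listed) in √10 steps on top of a fixed anchor-drug dose. Cells were fixed and nuclei stained in one step after 5 days, and nuclei were counted. Relative viability is the nuclei count for treated wells divided by that for vehicle wells, reported as medians of duplicate plates.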
cell line,measurement,setting,value
NCI-H1915,relative viability,first compound 0.00128 µM,0.846
same,relative viability,first compound 0.004048 µM,1.02
same,relative viability,first compound 0.0128 µM,0.85
same,relative viability,first compound 0.04048 µM,0.884
same,relative viability,first compound 0.128 µM,0.118
NCI-H647,relative viability,first compound 0.00128 µM,0.912
same,relative viability,first compound 0.004048 µM,0.761
same,relative viability,first compound 0.0128 µM,0.0902
same,relative viability,first compound 0.04048 µM,0.1
same,relative viability,first compound 0.128 µM,0.0699
IA-LM,relative viability,first compound 0.00128 µM,0.886
same,relative viability,first compound 0.004048 µM,0.604
same,relative viability,first compound 0.0128 µM,0.766
same,relative viability,first compound 0.04048 µM,0.326
same,relative viability,first compound 0.128 µM,0.0846
NCI-H2009,relative viability,first compound 0.00128 µM,0.974
same,relative viability,first compound 0.004048 µM,0.995
same,relative viability,first compound 0.0128 µM,0.917
same,relative viability,first compound 0.04048 µM,0.815
same,relative viability,first compound 0.128 µM,0.142
NCI-H2126,relative viability,first compound 0.00128 µM,1.09
same,relative viability,first compound 0.004048 µM,1.1
same,relative viability,first compound 0.0128 µM,0.993
same,relative viability,first compound 0.04048 µM,1.06
same,relative viability,first compound 0.128 µM,0.255
LXF-289,relative viability,first compound 0.00128 µM,0.99
same,relative viability,first compound 0.004048 µM,0.994
same,relative viability,first compound 0.0128 µM,0.815
same,relative viability,first compound 0.04048 µM,0.478
same,relative viability,first compound 0.128 µM,0.108
NCI-H1563,relative viability,first compound 0.00128 µM,0.855
same,relative viability,first compound 0.004048 µM,0.702
same,relative viability,first compound 0.0128 µM,0.597
same,relative viability,first compound 0.04048 µM,0.573
same,relative viability,first compound 0.128 µM,0.469
HCC-44,relative viability,first compound 0.00128 µM,0.865
same,relative viability,first compound 0.004048 µM,0.854
same,relative viability,first compound 0.0128 µM,0.903
same,relative viability,first compound 0.04048 µM,0.466
same,relative viability,first compound 0.128 µM,0.142
PC-3 [JPC-3],relative viability,first compound 0.00128 µM,0.824
same,relative viability,first compound 0.004048 µM,0.848
same,relative viability,first compound 0.0128 µM,0.814
same,relative viability,first compound 0.128 µM,0.707
HOP-62,relative viability,first compound 0.00128 µM,0.701
same,relative viability,first compound 0.004048 µM,0.725
same,relative viability,first compound 0.0128 µM,0.748
same,relative viability,first compound 0.04048 µM,0.46
same,relative viability,first compound 0.128 µM,0.117
NCI-H1666,relative viability,first compound 0.00128 µM,0.78
same,relative viability,first compound 0.004048 µM,0.687
same,relative viability,first compound 0.0128 µM,0.244
same,relative viability,first compound 0.04048 µM,0.228
same,relative viability,first compound 0.128 µM,0.171
NCI-H1355,relative viability,first compound 0.00128 µM,1.21
same,relative viability,first compound 0.004048 µM,1.11
same,relative viability,first compound 0.0128 µM,1.28
same,relative viability,first compound 0.04048 µM,0.26
same,relative viability,first compound 0.128 µM,0.144
HCC-827,relative viability,first compound 0.00128 µM,0.962
same,relative viability,first compound 0.004048 µM,0.995
same,relative viability,first compound 0.0128 µM,1.04
same,relative viability,first compound 0.128 µM,0.849
HARA,relative viability,first compound 0.00128 µM,1.08
same,relative viability,first compound 0.004048 µM,1.11
same,relative viability,first compound 0.0128 µM,1.14
same,relative viability,first compound 0.04048 µM,1.14
same,relative viability,first compound 0.128 µM,0.187
HCC-366,relative viability,first compound 0.00128 µM,0.949
same,relative viability,first compound 0.004048 µM,0.785
same,relative viability,first compound 0.0128 µM,0.0604
same,relative viability,first compound 0.04048 µM,0.0267
same,relative viability,first compound 0.128 µM,0.0245
NCI-H441,relative viability,first compound 0.00128 µM,0.506
same,relative viability,first compound 0.004048 µM,0.395
same,relative viability,first compound 0.0128 µM,0.199
same,relative viability,first compound 0.04048 µM,0.181
same,relative viability,first compound 0.128 µM,0.14
NCI-H2405,relative viability,first compound 0.00128 µM,1.04
same,relative viability,first compound 0.004048 µM,1.03
same,relative viability,first compound 0.0128 µM,1
same,relative viability,first compound 0.04048 µM,0.675
same,relative viability,first compound 0.128 µM,0.217
NCI-H1975,relative viability,first compound 0.00128 µM,0.445
same,relative viability,first compound 0.004048 µM,0.34
same,relative viability,first compound 0.0128 µM,0.149
same,relative viability,first compound 0.04048 µM,0.145
same,relative viability,first compound 0.128 µM,0.119
NCI-H2347,relative viability,first compound 0.004048 µM,0.995
same,relative viability,first compound 0.0128 µM,0.871
same,relative viability,first compound 0.04048 µM,0.447
same,relative viability,first compound 0.128 µM,0.371
ABC-1,relative viability,first compound 0.00128 µM,0.356
same,relative viability,first compound 0.004048 µM,0.348
same,relative viability,first compound 0.0128 µM,0.355
same,relative viability,first compound 0.04048 µM,0.287
same,relative viability,first compound 0.128 µM,0.246
A-427,relative viability,first compound 0.00128 µM,1.01
same,relative viability,first compound 0.004048 µM,1.05
same,relative viability,first compound 0.0128 µM,0.965
same,relative viability,first compound 0.04048 µM,0.921
same,relative viability,first compound 0.128 µM,0.625
LCLC-97TM1,relative viability,first compound 0.00128 µM,0.431
same,relative viability,first compound 0.004048 µM,0.614
same,relative viability,first compound 0.0128 µM,0.249
same,relative viability,first compound 0.04048 µM,0.125
same,relative viability,first compound 0.128 µM,0.0923
HCC-15,relative viability,first compound 0.00128 µM,1.01
same,relative viability,first compound 0.004048 µM,0.816
same,relative viability,first compound 0.0128 µM,0.502
same,relative viability,first compound 0.04048 µM,0.542
same,relative viability,first compound 0.128 µM,0.127
NCI-H650,relative viability,first compound 0.00128 µM,0.78
same,relative viability,first compound 0.004048 µM,0.99
same,relative viability,first compound 0.0128 µM,0.669
same,relative viability,first compound 0.04048 µM,0.236
same,relative viability,first compound 0.128 µM,0.204
UMC-11,relative viability,first compound 0.00128 µM,0.667
same,relative viability,first compound 0.004048 µM,0.616
same,relative viability,first compound 0.0128 µM,0.629
same,relative viability,first compound 0.04048 µM,0.227
same,relative viability,first compound 0.128 µM,0.12
NCI-H1651,relative viability,first compound 0.00128 µM,0.859
same,relative viability,first compound 0.004048 µM,0.928
same,relative viability,first compound 0.0128 µM,0.872
same,relative viability,first compound 0.04048 µM,0.89
same,relative viability,first compound 0.128 µM,0.425
NCI-H1792,relative viability,first compound 0.00128 µM,0.912
same,relative viability,first compound 0.004048 µM,0.807
same,relative viability,first compound 0.0128 µM,0.839
same,relative viability,first compound 0.04048 µM,0.802
same,relative viability,first compound 0.128 µM,0.137
NCI-H2023,relative viability,first compound 0.00128 µM,0.886
same,relative viability,first compound 0.004048 µM,0.878
same,relative viability,first compound 0.0128 µM,0.138
same,relative viability,first compound 0.04048 µM,0.0901
same,relative viability,first compound 0.128 µM,0.0776
COR-L 105,relative viability,first compound 0.00128 µM,0.548
same,relative viability,first compound 0.004048 µM,0.729
same,relative viability,first compound 0.0128 µM,0.746
same,relative viability,first compound 0.04048 µM,0.581
same,relative viability,first compound 0.128 µM,0.507
NCI-H1734,relative viability,first compound 0.00128 µM,0.917
same,relative viability,first compound 0.004048 µM,0.897
same,relative viability,first compound 0.0128 µM,0.734
same,relative viability,first compound 0.04048 µM,0.269
same,relative viability,first compound 0.128 µM,0.145
NCI-H322M,relative viability,first compound 0.00128 µM,1.28
same,relative viability,first compound 0.004048 µM,1.38
same,relative viability,first compound 0.0128 µM,1.35
same,relative viability,first compound 0.04048 µM,0.929
same,relative viability,first compound 0.128 µM,0.493
CAL-12T,relative viability,first compound 0.00128 µM,1.11
same,relative viability,first compound 0.004048 µM,0.899
same,relative viability,first compound 0.0128 µM,0.904
same,relative viability,first compound 0.04048 µM,0.726
same,relative viability,first compound 0.128 µM,0.469
HCC-78,relative viability,first compound 0.00128 µM,0.538
same,relative viability,first compound 0.004048 µM,0.482
same,relative viability,first compound 0.0128 µM,0.539
same,relative viability,first compound 0.04048 µM,0.368
same,relative viability,first compound 0.128 µM,0.6
NCI-H2085,relative viability,first compound 0.00128 µM,1.08
same,relative viability,first compound 0.004048 µM,1.02
same,relative viability,first compound 0.0128 µM,1.11
same,relative viability,first compound 0.04048 µM,1.04
same,relative viability,first compound 0.128 µM,0.714
